{"source": "patent US20020187925A1", "about": "“Modulating the activity of hormones or their receptors - peptides, antibodies, vaccines and uses thereof” (priority 1996, published 2002)", "key": {"[1]": {"experiment": "Immunisation of growing lambs with antigen in oil", "assay_type": "in vivo", "experimental": "When this antigen was injected three times into growing lambs with the preferred delivery vehicle (oil), anti-SRIF and anti-cholecystokinin antibodies were detectable at 84 days of age. By this time, the immunised lambs had grown an average of 20% more than non-immunised lambs."}, "[2]": {"test_system": "SRIF", "experiment": "Example 23: levels of anti-SRIF antibodies in gut, plasma, milk", "assay_type": "in vivo, pigs", "settings": "for Gut IgA anti-SRIF antibodies / Gut IgG anti-SRIF antibodies / Plasma IgA anti-SRIF antibodies / Plasma IgG anti-SRIF antibodies: piglets", "from_the_text": "Sows immunized twice in the last trimester of pregnancy with SEQ ID No 3 produced piglets which were on average 27% heavier at weaning (at 21 days of age) than the offsprings of sows immunised with SRIF 14 conjugate vaccine. The levels of anti-SRIF antibodies measured are given below:\nSignificant quantities of antibodies to SRIF were detected in the plasma and gut scrapings of piglets sucking sows immunised with SRIF/BSA or SEQ ID NO:3 emulsified in the oil of the invention."}, "[3]": {"experiment": "Example 23: weaning weight of piglets of immunised sows", "assay_type": "in vivo, pigs", "settings": "21 days of age; sows immunized twice in last trimester", "from_the_text": "Sows immunized twice in the last trimester of pregnancy with SEQ ID No 3 produced piglets which were on average 27% heavier at weaning (at 21 days of age) than the offsprings of sows immunised with SRIF 14 conjugate vaccine. The levels of anti-SRIF antibodies measured are given below: […]"}, "[4]": {"experiment": "Example 22: pregnant pigs immunised twice in last trimester; anti-SRIF antibodies and piglet growth rates", "assay_type": "in vivo", "settings": "for absolute growth rates of the piglets: birth to weaning, non-immunised control 165; for anti-SRIF antibodies in colostrum and milk of the sow and in blood and gut scrapings of piglets: piglets at 3 days and 21 days of age, antigen in the preferred oil", "from_the_text": "The absolute growth rates of the piglets from birth to weaning were: […]"}, "[5]": {"experiment": "Immunisation of male pigs from 12 weeks of age", "assay_type": "in vivo", "from_the_text": "Male pigs immunised with this peptide three times from 12 weeks of age grew an average of […] faster than non-immunised pigs to 24 weeks of age, and the testicle size of the immunised pigs was approximately 50% the size of those of the non-immunised animals."}, "[6]": {"experiment": "Solubility in sterile saline", "assay_type": "physicochemical", "settings": "sterile physiological saline / sterile saline solutions"}, "[7]": {"experiment": "Growth of piglets suckling dams vaccinated in last trimester of pregnancy", "assay_type": "in vivo, pigs", "settings": "birth to weaning", "from_the_text": "Piglets suckling dams which had been vaccinated with this molecule in the last trimester of pregnancy grew an average of 40% faster from birth to weaning than did corresponding piglets which were suckling non-immunised dams."}, "[8]": {"experiment": "Example 16: pregnant gilts immunised with FEEDMIZA or SRIF-conjugate; liveweight gain, feed conversion", "assay_type": "in vivo, pigs", "experimental": "This experiment was designed to measure the effects of vaccinating pregnant gilts with FEEDMIZA by the subcutaneous route during first pregnancy. Opportunity was taken to compare any response to FEEDMIZA with response to a SRIF-conjugate vaccine delivered in the same delivery vehicle as peptide No.1. For that comparison the quantity of antigen was standardised at 100 μg of SRIF in the SRIF-conjugate, and 100 μg of the FEEDMIZA antigen.\nTwenty four Landrace X Large White female hybrid gilts were selected, mated and held in conventional dry sow stalls. They were randomly assigned to 3 treatment groups, viz:\nThe gilts were immunised by subcutaneous injection of 3 ml of the relevant antigen at the neck-on the day of mating.\nThe animals were held in conventional single dry sow stalls. At 30 days of pregnancy the treatment groups were reduced to 5 confirmed pregnant animals per treatment group. Subsequent vaccinations were performed at weeks 6, 9 and 12 of pregnancy. Each gilt was fed 3 kg of feed (Breedmore sow ration, Barastoc, Melbourne) each day from mating until farrowing. Each animal was weighed at mating, and at intervals of 3 weeks until farrowing."}, "[9]": {"experiment": "Example 17: sows of Example 16 during lactation; liveweight loss", "assay_type": "in vivo, pigs", "from_the_text": "This experiment was a continuation of the trial of Example 16. It sought to observe the rate of liveweight gain of piglets during the lactation period up to weaning for piglets whose dams were immunised during gestation with FEEDMIZA, or with a SRIF-conjugate vaccine, using piglets being reared by non-immunised dams as controls.\nSows from Example 16 continued to be reared without any further immunisations or manipulations, with the exception that;\na) daily feed offered was increased to 6 kg per head from farrowing to weaning 21 days later.\nb) 3 days after farrowing the number of piglets on each sow was reduced to 8 to ensure that each litter of pigs in the experiment was benefiting from the combined effects of the quantity of milk produced, and ingested any antibodies that might be in them, without confounding influences of varying litter sizes, social interactions, and competition for teats. Sows were weighed at weaning.\nPiglets were individually identified at birth, and were weighed at birth, and each 7 days until weaning at 21 days of age. All piglets received a routine oral dose of broad spectrum antibiotic (Tribrissen Piglet Suspension, Intervet, Melbourne) at three days of age, as well as an intramuscular supplemental iron injection Pignaemia, Intervet, Melbourne)\nWater was available ad libitum to sows and piglets at all times."}, "[10]": {"experiment": "Example 18: liveweights of piglets of immunised sows", "assay_type": "in vivo, pigs", "from_the_text": "This experiment sought to study the effects pre-farrowing immunisation of sows with SRIF-conjugate vaccine, or FEEDMIZA vaccine on the subsequent patterns of liveweight gain of their sucking piglets to weaning at 3 weeks of age, and for the post-weaning period The experiment monitored the piglets which were the subject of the previous experiment.\nThe piglets (8 per litter) on each of the 5 sows in the treatment groups (non-immunised, SRIF-conjugate immunised and FEEDMZA-immunised) were individually eartagged for identification, and were weighed at birth, 7, 14, 21 days (the day of weaning) and 35 days of age (2 weeks post-weaning).\nDuring lactation the piglets had ready access to a creep area which was warmed by an infra-red lamp, water ad libitum and creep feed granules (Barastoc, Melbourne) for the period of 18-21 days of age. They had no access to their mothers feed during the period of lactation\nAt weaning each litter of piglets was placed in a flatdeck weaning cage with 50% of the floor being bedding area, and 50% woven wire mesh. The cage was provided with a small silo feeder containing the same creep/weaner feed which had been offered to the piglets for the 3 days prior to weaning. Feed and fresh drinking water were offered ad libitum."}}, "note": "Non-standard residues stand in square brackets, D forms with d. No end group written: not given here. NMeY = CN[C@@H](Cc1ccc(O)cc1)C(=O)O", "data": [{"substance": "A-Y-M-G-W-S-C-T-K-W-F (AYMGWSCTKWF) [SEQ ID NO:52]", "values": [{"measurement": "growth more than non-immunised lambs", "setting": "[1]; by 84 days of age", "value": 20, "unit": "%"}, {"measurement": "anti-SRIF and anti-cholecystokinin antibodies", "setting": "[1]; lambs injected three times in oil, at 84 days of age", "value": "detectable"}]}, {"substance": "C-F-W-K-T-C-S-G (CFWKTCSG; not fully specified (bridges); printed as C-F-W-K-T-C-S-G; cysteine pairing not given here) [SEQ ID NO:3]", "values": [{"measurement": "Milk/colostrum IgA anti-SRIF antibodies", "setting": "[2]; DAY 3", "value": "0.026 ± 0.028", "unit": "OD @ 405 nm"}, {"measurement": "Sow's milk IgG anti-SRIF antibodies", "setting": "[2]; DAY 3", "value": "1.4 ± 0.162", "unit": "OD @ 405 nm"}, {"measurement": "Gut IgA anti-SRIF antibodies", "setting": "[2]; DAY 3", "value": "0.12 ± 0.157", "unit": "OD @ 405 nm"}, {"measurement": "Gut IgG anti-SRIF antibodies", "setting": "[2]; DAY 3", "value": "0.51 ± 0.21", "unit": "OD @ 405 nm"}, {"measurement": "Plasma IgA anti-SRIF antibodies", "setting": "[2]; DAY 3", "value": "1.43 ± 0.217", "unit": "OD @ 405 nm"}, {"measurement": "Plasma IgG anti-SRIF antibodies", "setting": "[2]; DAY 3", "value": "0.9 ± 0.13", "unit": "OD @ 405 nm"}, {"measurement": "Gut IgA anti-SRIF antibodies", "setting": "[2]; DAY 21", "value": "0.10 ± 0.087", "unit": "OD @ 405 nm"}, {"measurement": "Gut IgG anti-SRIF antibodies", "setting": "[2]; DAY 21", "value": "0.123 ± 0.09", "unit": "OD @ 405 nm"}, {"measurement": "Plasma IgA anti-SRIF antibodies", "setting": "[2]; DAY 21", "value": "0.567 ± 0.21", "unit": "OD @ 405 nm"}, {"measurement": "Plasma IgG anti-SRIF antibodies", "setting": "[2]; DAY 21", "value": "2.12 ± 0.23", "unit": "OD @ 405 nm"}, {"measurement": "piglets heavier at weaning than offspring of sows immunised with SRIF 14 conjugate vaccine", "setting": "[3]", "value": 27, "unit": "%"}, {"measurement": "absolute growth rates of the piglets", "setting": "[4]", "value": 275, "unit": "g per day"}, {"measurement": "anti-SRIF antibodies in colostrum and milk of the sow and in blood and gut scrapings of piglets", "setting": "[4]", "value": "produced anti-SRIF antibodies"}]}, {"substance": "F-W-K-T-S-G-G (FWKTSGG) [SEQ ID NO:4]", "values": [{"measurement": "absolute growth rates of the piglets", "setting": "[4]", "value": 240, "unit": "g per day"}, {"measurement": "anti-SRIF antibodies in colostrum and milk of the sow and in blood and gut scrapings of piglets", "setting": "[4]", "value": "produced anti-SRIF antibodies"}]}, {"substance": "F-W-K-T-S-K-H-W-S-Y-G-L-R-D-G-C (FWKTSKHWSYGLRDGC) [SEQ ID NO:53]", "values": [{"measurement": "grew faster than non-immunised pigs", "setting": "[5]; male pigs immunised three times from 12 weeks, to 24 weeks of age", "value": 12, "unit": "weeks"}, {"measurement": "testicle size relative to non-immunised animals", "setting": "[5]; male pigs, 24 weeks of age", "value": "approximately 50%"}]}, {"substance": "F-W-K-T-S-T-K-T-S-T-K-W-F (FWKTSTKTSTKWF) [SEQ ID NO:5]", "values": [{"measurement": "anti-SRIF antibodies in colostrum and milk of the sow and in blood and gut scrapings of piglets", "setting": "[4]", "value": "produced anti-SRIF antibodies"}]}, {"substance": "LCFWKTC [SEQ ID NO:1]", "values": [{"measurement": "solubility in sterile saline", "setting": "[6]", "value": "relatively soluble"}]}, {"substance": "NMe-Y-D-T-K-V-F-C-S ([NMeY]DTKVFCS) [SEQ ID NO:51]", "values": [{"measurement": "solubility in sterile saline", "setting": "[6]", "value": "very poorly soluble"}, {"measurement": "growth of suckling piglets faster than piglets suckling non-immunised dams", "setting": "[7]", "value": 40, "unit": "%"}]}, {"substance": "SRIF-conjugate: SRIF-conjugate vaccine delivered in the same delivery vehicle as peptide No.1 (SANSNPAMAPRERKAGCKNFFWKTFTSC; ends and bridges not checked; also: SRIF-conjugate vaccine (conjugated, site not given here))", "values": [{"measurement": "average liveweight gain per head during pregnancy", "setting": "[8]; mating to parturition, 345 Kg feed, non-immunised 60", "value": 75, "unit": "kg"}, {"measurement": "liveweight relative to non-immunised sows", "setting": "[8]; weeks 12 and 15 of pregnancy (SRIF: from 9 weeks)", "value": "at no point was this difference ever stastically significant"}, {"measurement": "Farrowing weight", "setting": "[9]; sows", "value": "154 ± 27.68", "unit": "kg"}, {"measurement": "Weaning weight", "setting": "[9]; sows", "value": "166.4 ± 26", "unit": "kg"}, {"measurement": "Weight loss", "setting": "[9]; sows, farrowing to weaning", "value": 7.2}, {"measurement": "mean loss of liveweight of sows", "setting": "[9]; three weeks lactation period, non-immunised 10.8", "value": 12, "unit": "kg"}, {"measurement": "liveweights of the piglets at weaning", "setting": "[10]; 21 days of age", "value": "7.32 ± 1.30", "unit": "kg"}, {"measurement": "Liveweights of the piglets 2 weeks after weaning", "setting": "[10]; 35 days of age", "value": "8.89 ± 1.33", "unit": "kg"}, {"measurement": "mean birthweights of the piglets", "setting": "[10]; born to immunised sows", "value": "1.40 ± 0.29", "unit": "kg"}]}, {"substance": "SRIF/BSA: SRIF 14 (native somatostatin) conjugate presented with the preferred oil [reference compound]", "values": [{"measurement": "Milk/colostrum IgA anti-SRIF antibodies", "setting": "[2]; DAY 3", "value": "0.029 ± 0.035", "unit": "OD @ 405 nm"}, {"measurement": "Sow's milk IgG anti-SRIF antibodies", "setting": "[2]; DAY 3", "value": "1.6 ± 0.22", "unit": "OD @ 405 nm"}, {"measurement": "Gut IgA anti-SRIF antibodies", "setting": "[2]; DAY 3", "value": "0.189 ± 0.133", "unit": "OD @ 405 nm"}, {"measurement": "Gut IgG anti-SRIF antibodies", "setting": "[2]; DAY 3", "value": "0.684 ± 0.548", "unit": "OD @ 405 nm"}, {"measurement": "Plasma IgA anti-SRIF antibodies", "setting": "[2]; DAY 3", "value": "1.067 ± 0.469", "unit": "OD @ 405 nm"}, {"measurement": "Plasma IgG anti-SRIF antibodies", "setting": "[2]; DAY 3", "value": "1.38 ± 0.44", "unit": "OD @ 405 nm"}, {"measurement": "Gut IgA anti-SRIF antibodies", "setting": "[2]; DAY 21", "value": "0.037 ± 0.05", "unit": "OD @ 405 nm"}, {"measurement": "Gut IgG anti-SRIF antibodies", "setting": "[2]; DAY 21", "value": "0.259 ± 0.18", "unit": "OD @ 405 nm"}, {"measurement": "Plasma IgA anti-SRIF antibodies", "setting": "[2]; DAY 21", "value": "0.798 ± 0.49", "unit": "OD @ 405 nm"}, {"measurement": "Plasma IgG anti-SRIF antibodies", "setting": "[2]; DAY 21", "value": "1.779 ± 0.13", "unit": "OD @ 405 nm"}, {"measurement": "absolute growth rates of the piglets", "setting": "[4]", "value": 180, "unit": "g per day"}, {"measurement": "anti-SRIF antibodies in colostrum and milk of the sow and in blood and gut scrapings of piglets", "setting": "[4]", "value": "produced anti-SRIF antibodies"}]}]}
